Results as given in US10669258B2, “3-sulfonyl-5-aminopyridine-2,4-diol APJ agonists” (BRISTOL-MYERS SQUIBB COMPANY, priority 2016, dated 2020).
Read-outs that look alike come from different tables or passages of the source.

Target: T1, human APJ receptor (Homo sapiens, UniProt P35414)
T1 construct: expressed in transfected cells; host or cells: HEK293
T1 sequence (P35414 1-380): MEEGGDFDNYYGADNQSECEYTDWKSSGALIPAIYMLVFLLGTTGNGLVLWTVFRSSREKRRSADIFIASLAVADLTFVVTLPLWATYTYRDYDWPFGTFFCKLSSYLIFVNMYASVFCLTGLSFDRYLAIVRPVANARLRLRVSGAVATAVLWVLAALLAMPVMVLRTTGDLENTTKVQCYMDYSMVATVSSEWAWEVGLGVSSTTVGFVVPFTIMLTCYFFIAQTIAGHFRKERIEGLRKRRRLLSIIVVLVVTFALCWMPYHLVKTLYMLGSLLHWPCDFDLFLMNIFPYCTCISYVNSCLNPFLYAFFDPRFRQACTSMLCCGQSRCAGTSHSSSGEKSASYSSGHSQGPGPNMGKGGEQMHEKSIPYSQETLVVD
Test: Intracellular cAMP accumulation assay (APJ hcAMP, HTRF)
Format: cell-based
Conditions: HEK293 cells stably expressing human APJ receptor, inhibition of forskolin-mediated cAMP production
Summary of the method: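 Inhibition of forskolin (2 μM)-driven cAMP, with […], measured by HTRF after 30 min room-temperature compound exposure of stably transfected HEK293 cells. cAMP read from a standard curve; variable-slope fit gives EC50, and maximal inhibition is normalised to (Pyr1)apelin-13 as 100%.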

[1] = Table 1, read-out: hAPJ cAMP EC50 Potency range
[2] = Table 2, read-out: hAPJ cAMP EC50 Potency range

SMILES	EC50 [1] [nM]	EC50 [2] [nM]	further results
CCCCc1nc(O)c(S(=O)(=O)c2ccc(-c3ccccc3C(N)=O)cc2)c(O)c1N(C)c1ccccc1C [Example 195, 4′-((6-butyl-2,4-dihydroxy-5-(methyl(o-tolyl)amino)pyridin-3-yl)sulfonyl)-[1,1′-biphenyl]-2-carboxamide]	0.01 to 10	–	–
CCCCc1nc(O)c(S(=O)(=O)c2ccc(-c3ccccc3C(=O)N(C)C)cc2)c(O)c1N(C)c1ccccc1C [Example 196, 4′-((6-butyl-2,4-dihydroxy-5-(methyl(o-tolyl)amino)pyridin-3-yl)sulfonyl)-N,N-dimethyl-[1,1′-biphenyl]-2-carboxamide]	0.01 to 10	–	–
CCN(c1ccccc1)c1c(-c2ccn(C)n2)nc(O)c(C(=O)N2CCC(c3ncc(F)cc3F)C2)c1O (centres unmarked) [Example 197, (3-(3,5-difluoropyridin-2-yl)pyrrolidin-1-yl)(5-(ethyl(phenyl)amino)-2,4-dihydroxy-6-(1-methyl-1H-pyrazol-3-yl)pyridin-3-yl)methanone]	–	–	EC50 (hAPJ cAMP EC50 Potency range, Table 2): 0.01 to 10 nM
CCCCc1nc(O)c(S(=O)(=O)c2ccc(-c3ccc(F)nc3C)cc2)c(O)c1N(C)c1ccccc1C [Example 198, 6-butyl-3-((4-(6-fluoro-2-methylpyridin-3-yl)phenyl)sulfonyl)-5-(methyl(o-tolyl)amino)pyridine-2,4-diol]	10 to 100	–	–
CCN(c1ccccc1)c1c(-c2ccn(C)n2)nc(O)c(C(=O)N2CCC(c3ccc(F)cc3F)C2)c1O (centres unmarked) [Example 201, (3-(2,4-difluorophenyl)pyrrolidin-1-yl)(5-(ethyl(phenyl)amino)-2,4-dihydroxy-6-(1-methyl-1H-pyrazol-3-yl)pyridin-3-yl)methanone]	–	0.01 to 10	–
CCN(c1ccccc1)c1c(-c2ccn(C)n2)nc(O)c(C(=O)N2CCC(c3ccccc3F)C2)c1O (centres unmarked) [Example 202, (5-(ethyl(phenyl)amino)-2,4-dihydroxy-6-(1-methyl-1H-pyrazol-3-yl)pyridin-3-yl)(3-(2-fluorophenyl)pyrrolidin-1-yl)methanone]	–	0.01 to 10	–
CCCCc1nc(O)c(S(=O)(=O)c2ccc(-c3ccncc3C)cc2)c(O)c1N(C)c1ccccc1C [Example 203, 6-butyl-5-(methyl(o-tolyl)amino)-3-((4-(3-methypyridin-4-yl)phenyl)sulfonyl)pyri-dine-2,4-diol]	0.01 to 10	–	–
CCN(c1ccccc1)c1c(-c2ccn(C)n2)nc(O)c(C(=O)N2CCC(c3ncc(Cl)cc3F)C2)c1O (centres unmarked) [Example 204, (3-(5-chloro-3-fluoropyridin-2-yl)pyrrolidin-1-yl)(5-(ethyl(phenyl)amino)-2,4-dihydroxy-6-(1-methyl-1H-pyrazol-3-yl)pyridin-3-yl)methanone]	–	0.01 to 10	–
CCCCc1nc(O)c(S(=O)(=O)c2ccc(-c3ccccc3C(=O)NC3CC3)cc2)c(O)c1N(C)c1ccccc1C [Example 208, 4′-((6-butyl-2,4-dihydroxy-5-(methyl(o-tolyl)amino)pyridin-3-yl)sulfonyl)-N-cyclopropyl-[1,1′-biphenyl]-2-carboxamide]	0.01 to 10	–	–
CCN(c1cccc(C#N)c1)c1c(-c2ccn(C)n2)nc(O)c(S(=O)(=O)c2ccc(-c3ccccc3C(=O)N(C)C)cc2)c1O [Example 210, 4′-((5-((3-cyano-phenyl)(ethyl)amino)-2,4-dihydroxy-6-(1-methyl-1H-pyrazol-3-yl)pyridin-3-yl)sulfonyl)-N,N-dimethyl-[1,1′-biphenyl]-2-carboxamide]	0.01 to 10	–	–
CCN(c1cccc(C#N)c1)c1c(-c2ccn(C)n2)nc(O)c(S(=O)(=O)c2ccc(-c3ccncc3C)cc2)c1O [Example 212, 3-((4,6-dihydroxy-2-(1-methyl-1H-pyrazol-3-yl)-5-((4-(3-methylpyridin-4-yl)phenyl)sulfonyl)pyri-din-3-yl)(ethyl)amino)benzonitrile]	0.01 to 10	–	–
CCN(c1cccc(C#N)c1)c1c(-c2ccn(C)n2)nc(O)c(S(=O)(=O)c2ccc(-c3cccc(F)c3C(N)=O)cc2)c1O [Example 215, 4′-((5-((3-cyanophenyl)(ethyl)ami-no)-2,4-dihydroxy-6-(1-methyl-1H-pyrazol-3-yl)pyridin-3-yl)sulfonyl)-3-fluoro-[1,1′-biphenyl]-2-carboxamide]	0.01 to 10	–	–
CCN(c1cccc(C#N)c1)c1c(-c2ccn(C)n2)nc(O)c(S(=O)(=O)c2ccc(-c3cccnc3C)cc2)c1O [Example 217]	0.01 to 10	–	–
CCN(c1cccc(C#N)c1)c1c(-c2ccn(C)n2)nc(O)c(S(=O)(=O)c2ccc(-c3ccccc3C(=O)NC3CC3)cc2)c1O [Example 218, 4′-((5-((3-cyanophenyl)(ethyl)ami-no)-2,4-dihydroxy-6-(1-methyl-1H-pyrazol-3-yl)pyridin-3-y)sulfonyl)-N-cyclopropyl-[1,1′-biphenyl]-2-carboxamide]	0.01 to 10	–	–

Further lines, with some results ahead:

EC50 [1] [nM]	EC50 [2] [nM]	SMILES	further results
–	0.01 to 10	CCN(c1ccccc1)c1c(-c2ccn(C)n2)nc(O)c(C(=O)N2CCC(c3ccc(Cl)cn3)C2)c1O (centres unmarked) [Example 200, (3-(5-chloropyridin-2-yl)pyrrolidin-1-yl)(5-(ethyl(phenyl)amino)-2,4-dihydroxy-6-(1-methyl-1H-pyrazol-3-yl)pyridin-3-yl)methanone]	–
–	0.01 to 10	CCN(c1ccccc1)c1c(-c2ccn(C)n2)nc(O)c(C(=O)N2CCC(c3ccccc3F)C2)c1O (centres unmarked) [Example 205, (5-(ethyl(phenyl)amino)-2,4-dihydroxy-6-(1-methyl-1H-pyrazol-3-yl)pyridin-3-yl)(3-(2-fluorophenyl)pyrrolidin-1-yl)methanone]	–
0.01 to 10	–	CCCCc1nc(O)c(S(=O)(=O)c2ccc(-c3ccccc3C(=O)NC)cc2)c(O)c1N(C)c1ccccc1C [Example 206, 4′-((6-butyl-2,4-dihydroxy-5-(methyl(o-tolyl)amino)pyridin-3-yl)sulfonyl)-N-methyl-[1,1′-biphenyl]-2-carboxamide]	–
–	0.01 to 10	CCN(c1ccccc1)c1c(-c2ccn(C)n2)nc(O)c(C(=O)N2CCC(c3ccc(F)cc3F)C2)c1O (centres unmarked) [Example 207, (3-(2,4-difluorophenyl)pyrrolidin-1-yl)(5-(ethyl(phenyl)amino)-2,4-dihydroxy-6-(1-methyl-1H-pyrazol-3-yl)pyridin-3-yl)methanone]	–
–	0.01 to 10	CC(C)N(c1ccccc1)c1c(-c2ccn(C)n2)nc(O)c(C(=O)N2CCC(c3ccc(F)cc3F)C2)c1O (centres unmarked) [Example 209, (3-(2,4-difluorophenyl)pyrrolidin-1-yl)(2,4-dihydroxy-5-(isopropyl(phenyl)amino)-6-(1-methyl-1H-pyrazol-3-yl)pyridin-3-yl)methanone]	–
0.01 to 10	–	CCN(c1cccc(C#N)c1)c1c(-c2ccn(C)n2)nc(O)c(S(=O)(=O)c2ccc(-c3ccnc(F)c3C)cc2)c1O [Example 211, 3-(ethyl(5-((4-(2-fluoro-3-methylpyridin-4-yl)phenyl)sulfonyl)-4,6-dihydroxy-2-(1-methyl-1H-pyrazol-3-yl)pyridin-3-yl)amino)benzonitrile]	–
0.01 to 10	–	CCN(c1cccc(C#N)c1)c1c(-c2ccn(C)n2)nc(O)c(S(=O)(=O)c2ccc(-c3ccc(F)nc3C)cc2)c1O [Example 213, 3-(ethyl(5-((4-(6-fluoro-2-methylpyridin-3-yl)phenyl)sulfonyl)-4,6-dihydroxy-2-(1-methyl-1H-pyrazol-3-yl)pyridin-3-yl)amino)benzonitrile]	–
0.01 to 10	–	CCN(c1cccc(C#N)c1)c1c(-c2ccn(C)n2)nc(O)c(S(=O)(=O)c2ccc(-c3ccccc3C(=O)NC)cc2)c1O [Example 214, 4′-((5-((3-cyanophenyl)(ethyl)ami-no)-2,4-dihydroxy-6-(1-methyl-1H-pyrazol-3-yl)pyridin-3-yl)sulfonyl)-N-methyl-[1,1′-biphenyl]-2-carboxamide]	–
0.01 to 10	–	CCN(c1cccc(C#N)c1)c1c(-c2ccn(C)n2)nc(O)c(S(=O)(=O)c2ccc(-c3ccccc3C(N)=O)cc2)c1O [Example 216, 4′-((5-((3-cyanophenyl)(ethyl)ami-no)-2,4-dihydroxy-6-(1-methyl-1H-pyrazol-3-yl)pyridin-3-yl)sulfonyl)-[1,1′-biphenyl]-2-carboxamide]	–
